Assay [1] concerns U937 cells. In words: Inhibition of TNF-α-induced programmed necrosis of U937 cells (CellTiter-Glo). The note with it: U-937, human TNF-α + Q-VD-Oph, 48 hours. The class given is cell-based. How it is done:
The U937 cell line used in the following test examples was from ATCC, number: CRL-1593.2, batch number: 63479999, culture medium: RPMI-1640+10% FBS.
(§1) The reagents used, suppliers and product numbers of the reagents were as follows: RPMI-1640, Gibco, 11875-093; FBS, Gibco, 10099-141; Trypsin-EDTA, Gibco, 25200-072; PS, Gibco, 15140-122; CellTiter Glo , Progema, G7573; DMSO, VWR AMRESCO, 0231-500ML; TNF-α protein (human, recombinant), Peprotech, 300-01A; Q-VD-Oph, MCE, HY-12305; V-shaped bottom plate, Corning, 3894; 384-well low-flange white flat-bottom microplate, Corning, 3570; RIPK1, Eurofins, 16-022; MOPS, BDH, 441644J; EDTA, Sigma, E5134; Myelin basic protein, Sigma, M1891-25.00 MG; Magnesium acetate, Merck, DU008026; ATP (non-radioactive label), Sigma, A-7699; ATP (radioactive label), Hartmann Analytic, DU008054; Phosphoric acid, Metlab, DU003000; Z-VAD: Shanghai Yuang Chemical Industry, YA02401.
The compounds to be tested were dissolved in DMSO and diluted with DMSO into a series of concentration gradients. 5000 U937 cells/well were seeded in a 384-well white plate. Compounds of corresponding concentrations were added to each well and mixed evenly with the cells. At the same time, human TNF-a and Q-VD-Oph were added to induce programmed necrosis of the cells. The cells were placed at 37° C., 5% CO2 incubator for 48 hours. CellTiter-Glo reagent was used for detection, and the chemiluminescence reading was detected using a microplate reader after sufficient lysis reaction. The test results were calculated using the formula SR (%)=(RLU compound−RLU blank)/(RLU high control−RLU blank)×100%. The survival rate and the final concentration of the corresponding compound were drawn into a curve and fitted using four parameters. Inhibitory IC50 on TNF-α-induced cell necrosis of the compounds were calculated.
Background: In ATP-based viability assays light output follows the ATP content of the culture.

The target in assay [2] is RIPK1 (Homo sapiens (Human), UniProt Q13546). Briefly: Inhibitory activity against RIPK1 enzyme (33P-ATP, MBP substrate). It is filed as biochemical. The conditions noted are these: 36 nM RIPK1, 0.33 mg/ml MBP, 155 μM ATP, 2 hours, room temperature. How it is done:
as §1
The compound to be tested was dissolved in DMSO to prepare a 10 mM stock solution, diluted 3.16 times with DMSO into a series of concentration gradients, and then MOPS pH 7.0 buffer solution was used to dilute 50 times to prepare a working solution, and mixed well with 36 nM RIPK1 (final concentration), 0.33 mg/ml substrate MBP. Afterwards, 10 mM magnesium ions and 155 μM phosphorus 33 isotope-labeled ATP were added to react, The final concentration of DMSO was 2%. After the reaction was proceeded at room temperature for 2 hours, phosphoric acid was added to terminate. The final reaction system was processed and detected using a liquid scintillation counter. After the test results are subtracted from the blank control and compared with the reading value of the control group to convert to the activity percentage, which was plotted as a curve with the final concentration of the corresponding compound, and four-parameter fitting was used to obtain the IC50 of the compound that inhibits RIPK1 enzyme activity.

For assay [3], the system named is L929 cells. Briefly: Inhibition of TNF-α-induced programmed necrosis of L929 cells (CellTiter-Glo). The class given is cell-based. The conditions noted are these: 30 ng/ml mouse TNF-α + 15 μM Z-VAD, 6 hours. How it is done:
The L929 cell line used in the following test examples was from ATCC, number: CCL-1, batch number: 70001022, culture medium: MEM+10% FBS+1% PS.
as §1
The compounds to be tested were dissolved in DMSO to prepare a 10 mM stock solution, and diluted 3.16 times with DMSO into a series of concentration gradients, and then dilute 100 times to prepare a working solution. 10000 L929 cells/well were seeded in a 384-well white plate. Compounds of corresponding concentrations were added to each well and mixed evenly with the cells. At the same time, 30 ng/ml mouse TNF-α and 15 μM Z-VAD were added to induce programmed necrosis of the cells, the final concentration of DMSO was 0.2%. The cells were placed at 37° C., 5% CO2 incubator for 6 hours. CellTiter-Glo reagent was used for detection, and the chemiluminescence reading was detected using a microplate reader after sufficient lysis reaction. The test results were calculated using the formula SR (%)=(RLU compound−RLU blank)/(RLU high control−RLU blank)×100%. The survival rate and the final concentration of the corresponding compound were drawn into a curve and fitted using four parameters. Inhibitory IC50 on TNF-α-induced cell necrosis of the compounds were calculated.

Chain of RIPK1 (Q13546 whole entry): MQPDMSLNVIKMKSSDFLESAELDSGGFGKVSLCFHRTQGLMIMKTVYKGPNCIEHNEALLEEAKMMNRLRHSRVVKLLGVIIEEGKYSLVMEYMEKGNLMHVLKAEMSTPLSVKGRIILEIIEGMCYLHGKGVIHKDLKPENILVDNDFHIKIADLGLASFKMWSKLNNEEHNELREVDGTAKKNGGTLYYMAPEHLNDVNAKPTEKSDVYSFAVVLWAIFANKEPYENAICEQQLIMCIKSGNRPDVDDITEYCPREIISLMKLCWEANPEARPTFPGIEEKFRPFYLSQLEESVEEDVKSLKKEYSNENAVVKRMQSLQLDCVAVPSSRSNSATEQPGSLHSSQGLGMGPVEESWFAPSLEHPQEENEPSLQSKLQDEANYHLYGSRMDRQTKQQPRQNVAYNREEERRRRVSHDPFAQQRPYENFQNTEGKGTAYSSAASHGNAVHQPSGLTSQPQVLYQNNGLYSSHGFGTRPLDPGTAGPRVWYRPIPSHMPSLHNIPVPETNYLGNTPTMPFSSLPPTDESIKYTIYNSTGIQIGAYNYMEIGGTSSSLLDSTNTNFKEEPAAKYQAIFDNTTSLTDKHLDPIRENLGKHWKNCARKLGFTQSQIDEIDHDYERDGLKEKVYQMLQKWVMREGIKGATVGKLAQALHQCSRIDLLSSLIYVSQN

Consider `C[C@H](C(F)F)N1CCc2c(nn(Cc3c(F)cccc3F)c2Cl)C1=O` (single isomer, unassigned) [Compound Z9-2], for which the IC50 in assay [1] was found to be 42.8 nM; in assay [2] it was 89 nM; in assay [3], 450 nM.
For the molecule `C[C@@H](C(F)F)N1CCc2c(nn(Cc3c(F)cccc3F)c2Br)C1=O` (single isomer, unassigned) [Compound Z24-2], the IC50 in assay [1] amounted to 29.7 nM; in assay [3] it was 348 nM.
Take `O=C1c2nn(Cc3ccccc3)c(Cl)c2CCN1CC(F)F` [Compound Z1, 2-benzyl-3-chloro-6-(2,2-difluoroethyl)-2,4,5,6-tetrahydro-7H-pyrazolo[3,4-c]pyridine-7-one]: the IC50 in assay [1] was found to be 461 nM; in assay [2], 65 nM.
Take `O=C1c2nn(Cc3ccccc3F)c(Cl)c2CCN1CC(F)F` [Compound Z2, 3-chloro-6-(2,2-difluoroethyl)-2-(2-fluorobenzyl)-2,4,5,6-tetrahydro-7H-pyrazolo[3,4-c]pyridin-7-one]: the IC50 was 279 nM in assay [1] and 30 nM in assay [2].
As for `O=C1c2nn(Cc3c(F)cccc3F)c(Cl)c2CCN1CC(F)F` [Compound Z3, 3-chloro-2-(2,6-difluorobenzyl)-6-(2,2-difluoroethyl)-2,4,5,6-tetrahydro-7H-pyrazolo[3,4-c]pyridin-7-one], the IC50 amounted to 129 nM in assay [1] and 48 nM in assay [2].
With `CC(C(F)F)N1CCc2c(nn(Cc3c(F)cccc3F)c2Cl)C1=O` (stereo not drawn) [Compound Z9, 3-chloro-2-(2,6-difluorobenzyl)-6-(1,1-difluoropropan-2-yl)-2,4,5,6-tetrahydro-7H-pyrazolo[3,4-c]pyridin-7-one], the values for the 50% inhibitory concentration (IC50) in assay [1] and in assay [3] were 57.1 nM and 600 nM, respectively.
As to `CC(C(F)F)N1CCc2c(C(F)(F)F)nn(Cc3c(F)cccc3F)c2C1=O` (stereo not drawn) [Compound Z17, 1-(2,6-difluorobenzyl)-6-(1,1-difluoropropan-2-yl)-3-(trifluoromethyl)-1,4,5,6-tetrahydro-7H-pyrazolo[3,4-c]pyridin-7-one], in assay [1], the IC50 is 1820 nM.
On the same count and under the same terms, in the case of `CC(C(F)F)N1CCc2c(nn(Cc3ccc(F)cc3F)c2Cl)C1=O` (stereo not drawn) [Compound Z18, 3-chloro-2-(2,4-difluorobenzyl)-6-(1,1-difluoropropan-2-yl)-2,4,5,6-tetrahydro-7H-pyrazolo[3,4-c]pyridin-7-one] it was 194 nM; in that of `CC(C(F)F)N1CCc2c(nn(Cc3ccccc3F)c2Cl)C1=O` (stereo not drawn) [Compound Z19, 3-chloro-6-(1,1-difluoropropan-2-yl)-2-(2-fluorobenzyl)-2,4,5,6-tetrahydro-7H-pyrazolo[3,4-c]pyridin-7-one], 168 nM; in that of `CCC(=O)N1CCc2c(nn(Cc3c(F)cccc3F)c2Cl)C1=O` [Compound Z20, 3-chloro-2-(2,6-difluorobenzyl)-6-propionyl-2,4,5,6-tetrahydro-7H-pyrazolo[3,4-c]pyridin-7-one], 300 nM.
As to `CC(C(F)F)N1CCc2c(nn(Cc3cc(F)c(F)cc3F)c2Cl)C1=O` (stereo not drawn) [Compound Z21, 3-chloro-6-(1,1-difluoropropan-2-yl)-2-(2,4,5-trifluorobenzyl)-2,4,5,6-tetrahydro-7H-pyrazolo[3,4-c]pyridin-7-one], in assay [1], the IC50 amounted to 534 nM.
Consider `CC(C(F)F)N1CCc2c(nn(Cc3c(F)cc(F)cc3F)c2Cl)C1=O` (stereo not drawn) [Compound Z22, 3-chloro-6-(1,1-difluoropropan-2-yl)-2-(2,4,6-trifluorobenzyl)-2,4,5,6-tetrahydro-7H-pyrazolo[3,4-c]pyridin-7-one], for which the IC50 in assay [1] was 222 nM.
Regarding `O=C1c2nn(Cc3c(F)cccc3F)c(Cl)c2CCN1C1CCOCC1` [Compound Z23, 3-chloro-2-(2,6-difluorobenzyl)-6-(tetrahydro-2H-pyran-4-yl)-2,4,5,6-tetrahydro-7H-pyrazolo[3,4-c]pyridin-7-one], the IC50 in assay [1] was determined as 311 nM.
The same measure, in the same setting: the figure for `CC(C(F)F)N1CCc2c(nn(Cc3c(F)cccc3F)c2Br)C1=O` (stereo not drawn) [Compound Z24, 3-bromo-2-(2,6-difluorobenzyl)-6-(1,1-difluoropropan-2-yl)-2,4,5,6-tetrahydro-7H-pyrazolo[3,4-c]pyridin-7-one] is 48.9 nM.
In the case of `CC1(C)CC(N2CCc3c(nn(Cc4c(F)cccc4F)c3Cl)C2=O)CCO1` (stereo not drawn) [Compound Z25, 3-chloro-2-(2,6-difluorobenzyl)-6-(2,2-dimethyltetrahydro-2H-pyran-4-yl)-2,4,5,6-tetrahydro-7H-pyrazolo[3,4-c]pyridin-7-one], the IC50 in assay [1] was found to be 464 nM.
The same measure, in the same setting: the figure for `CC(=O)N1CCc2c(nn(Cc3c(F)cccc3F)c2Cl)C1=O` [Compound Z26, 6-acetyl-3-chloro-2-(2,6-difluorobenzyl)-2,4,5,6-tetrahydro-7H-pyrazolo[3,4-c]pyridin-7-one] is 361 nM.
As for `O=C1c2nn(Cc3ccccc3)c(Cl)c2CCCN1CC(F)F` [Compound Z42], in assay [2], half-maximal inhibition (IC50) was put at 184 nM.

What is called IC50 is the concentration that gives 50% inhibition.

The record behind these values is US20240294523A1, “HETEROCYCLIC LACTAM COMPOUND, AND PREPARATION METHOD THEREFOR AND PHARMACEUTICAL USE THEREOF” (Genfleet Therapeutics (Shanghai) Inc., priority 2021, published 2024).
